Reference: patent US5658886A, “Acridinone derivative, compositions containing same and a method for using same to treat Chlamydia trachomatis” (Limited Liability Partnership "POLYSAN", priority 1993, dated 1997)
Counter-ions that a name gives are not always drawn. Like-named read-outs stand apart in the source and are kept apart here.

Tests used:
[1] = test system: C trachomatis; settings: 100 mg/kg daily for 5 days
Experimental: Experiments were performed involving C trachomatis infection of non-line whim mice weighing 16-18 grams. […] Alternatively, a single tetracycline hydrochloride injection (100 mg/kg) was administered on conventional schedule for 5 days.
Therapeutic effectiveness was evaluated by cytoscopic examination of stained smears from lymph nodes and the lung for pathogenic multiplication.

[2] = test system: interferon; experiment: Interferon-inducing activity in mice (titers in blood); format: in vivo, BALB mice; settings: for Interferon titer: dose (mg/kg): cycloferone 200, thylorone 50, prototype 400-600
Experimental: At predetermined time intervals interferon titers were measured in the blood by conventional techniques on homologous cells […] grown in 96-well plates in a CO2 -containing incubator. The test-virus was the encephalomyocarditis virus.

[3] = in vivo; settings: mouse, in vivo
Experimental: (§1) Intravenous and intramuscular injections were given of 2000 mg/kg and less in two stages. The follow-up period was 14 days. The lethal dose (LD50) was calculated by the Kerber technique. […] 31, 1987.

[4] = test system: ristal-strain mongrel white mice; experiment: in vivo
Experimental: as §1

[5] = test system: human immunodeficiency virus (HIV); settings: 0.08 mg/ml
Experimental: The cells were grown at the Russian Medical University (RMU) in tube medium--1640 containing 20% calf foetal serum at end concentration of 0.5-0.7×10^6 cells/ml. […] The cells were then incubated for 3-4 days at 37° C. with subsequent replacement of nutrient medium. On the fifth and seventh day after infection, the presence of virus-specific antigen was established through indirect immunofluorescence assay using anti-HIV antibodies.

[6] = test system: B-lymphocytes; experiment: Interferon induction in cell culture, B-lymphocytes; format: cell-based, BALB mice
Description: (§2) The initial concentration was 5×10^6 cells/milliliter. The dynamics of interferon accumulation were studied in the cultural fluid of the lymphocytes grown on plastic plates in the presence of CO2.

[7] = test system: Splenocytes; experiment: Interferon induction in cell culture, splenocytes; format: cell-based, BALB mice
Description: as §2

[8] = test system: hepatocytes (liver); experiment: Anti-promotive activity: hepatocytic cohesion; format: in vivo, BALB/c mice
Experimental: Studies were performed on female BALB/c mice weighing 25.0 grams.
The compounds were administered daily for 6 days in optimal doses. Controls were given physiological solution. Six hours after the last injection the animals were sacrificed. Sections of the lung and liver were cut out, submerged in 199 medium, and cellular cohesion was measured. Measurements were performed with a micro-manipulator by modified Kuman technique. See Modianova E. A., Voprosy onkologii, 19(6): 83-88 (1973).
For each experimental point, cellular cohesion was measured in 4-5 mice. One tissue segment from each of the mice measuring 10-30 cells was examined.

[9] = test system: Peripheral-blood lymphocytes; experiment: Interferon induction in cell culture, peripheral-blood lymphocytes; format: cell-based, BALB mice
Description: as §2

[10] = test system: T-lymphocytes; experiment: Interferon induction in cell culture, T-lymphocytes; format: cell-based, BALB mice
Description: as §2

CN(C)C1C(=O)C(C(N)=O)=C(O)C2(O)C(=O)C3=C(O)c4c(O)cccc4C(C)(O)C3CC12 (stereo not shown) [Tetracycline hydrochloride, tetracycline hydrochloride]
Effectiveness Index ([1]; lung, 3 days): 1.8
Effectiveness Index ([1]; lung, 7 days): 1.0
Effectiveness Index ([1]; lymph nodes, 3 days): 0.9
Effectiveness Index ([1]; lymph nodes, 7 days): 0.6

CN(C)CCOC(=O)Cn1c2ccccc2c(=O)c2ccccc21 [10-carboxymethyl-9-acridone dimethyl-aminoethylether chlorhydrate]
Interferon titer ([2]; 2 hours): 100 IU/ml
Interferon titer ([2]; 4 hours): 1000 IU/ml
interferonogenic activity compared to the compound of the present invention ([2]; words, vs cycloferone): lower interferonogenic activity
LD50 at 336 h ([3]; im): 600 mg/kg
LD50 at 336 h ([3]; iv): 400 mg/kg
toxicity upon parenteral application ([4]; parenteral): low-toxicity
level of toxicity compared to the compound of the present invention ([4]; words, vs cycloferone): same level of toxicity

Cc1cn([C@H]2C[C@H](N=[N+]=[N-])[C@@H](CO)O2)c(=O)[nH]c1=O [Azidothymidine, azidothymidine]
Number of cells containing HIV antigen by IIFR ([5]; Day 5): 6.5%
Number of cells containing HIV antigen by IIFR ([5]; Day 7): 4.7%

CCN(CC)CCOc1ccc2c(c1)C(=O)c1cc(OCCN(CC)CC)ccc1-2 [Thylorone]
Interferon titer ([6]; 24 hr): 15
Interferon titer ([6]; 48 hr): 30
Interferon titer ([6]; 72 hr): 320
Interferon titer ([6]; 96 hr): < 10
Interferon titer ([6]; 120 hr): < 10
Interferon titer ([6]; 144 hr): 5
Interferon titer ([7]; 24 hr): 15
Interferon titer ([7]; 48 hr): 30
Interferon titer ([7]; 72 hr): 640
Interferon titer ([7]; 96 hr): 320
Interferon titer ([7]; 120 hr): 15
Interferon titer ([7]; 144 hr): < 5
Interferon titer ([2]; 1 hour): < 40 IU/ml
Interferon titer ([2]; 2 hours): < 40 IU/ml
Interferon titer ([2]; 4 hours): < 40 IU/ml
Interferon titer ([2]; 8 hours): 40 IU/ml
Interferon titer ([2]; 18 hours): 640 IU/ml
Interferon titer ([2]; 24 hours): 20 IU/ml
Interferon titer ([2]; 48 hours): < 10 IU/ml
Hepatocytic Cohesion ([8]; Intraperitoneal, 10.0 mg/kg, P >0.05): 0.053 ± 0.008 mg/1 cell
hepatocytic cohesion indices compared to controls ([8]; words, vs controls): the same as in the controls
Interferon titer ([9]; 24 hr): 40
Interferon titer ([9]; 48 hr): 80
Interferon titer ([9]; 72 hr): 320
Interferon titer ([9]; 96 hr): 80
Interferon titer ([9]; 120 hr): 10
Interferon titer ([9]; 144 hr): < 10
Interferon titer ([10]; 24 hr): 15
Interferon titer ([10]; 48 hr): 60
Interferon titer ([10]; 72 hr): 5000
Interferon titer ([10]; 96 hr): 3600
Interferon titer ([10]; 120 hr): 960
Interferon titer ([10]; 144 hr): 5
